Data taken from patent US9650423B2, “Long peptides of 22-45 amino acid residues that induce and/or enhance antigen specific immune responses” (priority 2000, dated 2017).
Read-outs that look alike come from different tables or passages of the source. Residues, ends and D or L forms follow the SMILES beside them. No end group written: not given here.

What was measured:
[1] = biological target: HLA-DR2 (DRB1*0201); assay: HLA-DR-peptide binding assay; design: species or system human
[2] = system: healthy donor PBMC; format: cell-based, human; conditions: for mean percentage of wells exceeding medium control + 3 * SD: 10 μg/ml, day 6, two assays
[3] = biological target: HLA-DR3 (DRB*0301); assay: HLA-DR-peptide binding assay; design: species or system human
[4] = biological target: HLA-DR4 (DRB*0401); assay: HLA-DR-peptide binding assay; design: species or system human
[5] = biological target: T1, HLA-DR1 (DRB*0101) (Homo sapiens, UniProt P01903+P01911, A100R/D57E/F55L/F60I/F76Y/I96L/L162R/M171V/P40L/Q125E/R42F/V115G/Y59C); assay: biochemical; format: binding
T1 construct: endogenous in cells; host or cells: LG2.1 B-lymphoblastic cell line, homozygous for HLA-DR

[6] = system: HPV16 E7-specific T-helper clones; assay: HPV16 E7-specific Th-clones: proliferation and IFNγ production; format: cell-based, human; conditions: for recognition by HLA-DQ2 restricted Th-clone, IFNγ secretion: Th-clone from HLA-DR3, DQ2 positive PBMC stimulated with peptide E722-56; for response of HLA-DR15 restricted Th-clone to pulsed APC: Th-clone from HLA-DR15, 4 and DQ6,7 positive PBMC raised against peptide E741-62
Method: Peptide-specific T-cell bulk cultures were generated as described previously (van der Burg et al., 1999) using either the E7 22-mer or E7 35-mer peptides. Specific proliferation was measured by incubation of 50,000 responders with an equal amount of irradiated (30Gy) APC (autologous PBMC unless indicated otherwise) and peptide or protein as indicated. E7-peptide and -protein-specific bulk T-cells were cloned by limiting dilution as described previously (van der Burg et al., 1999).
To determine specific excretion of cytokines, T-cell clones were stimulated by incubation of 50.000 T-cells with an equal amount of APC (30Gy) together with 10 μg/ml peptide, control peptide, E7 protein or control protein as indicated. After 24 hours of incubation, supernatant was harvested and replicate wells were pooled. Cytokine production was measured by Enzyme-Linked Immunosorbent Assay (ELISA) as described previously (van der Burg et al., 1999).

[7] = system: E7 49-57-specific CD8+ T cells; assay: Vaccination, H-2Db E7 49-57 tetramer staining of spleen cultures; format: in vivo, C57BL/6 mice; conditions: B6 mice
Method: Immunization strategies. C57BL/6 mice were injected subcutaneously with either 50 μg E7^49-57 peptide or 150 μg E7^43-77 35-mer dissolved in PBS in order to achieve similar molar levels of the E7^49-57 CTL epitope in both cases. Combinations with various adjuvantia were tested. In the case of IFA and Montanide, the dissolved peptides were emulsified in 50% of these respective substances. ODN-CpG (50 μg/mouse), MPL (10 μg/mouse) and GM-CSF (4 μg/mouse) were all dissolved in PBS and mixed with the peptides before subcutaneous vaccination. The total injected volume was 200 μl/mouse.
T cell cultures. T cells were obtained from immunized mice by culturing spleen cells (5×10^6 cells/well of a 24-wells plate) in complete medium in the presence of 0.5×10^6 E7^49-57-expressing cells (tumor cell line 13.2) or, when indicated, in the presence of D1 cells.
Tetramer staining. Spleen cultures, stimulated with tumor cell line 13.2 for seven days, were transferred at an amount of 40×10^4 per well to 96-well V-bottom microtiter plates and washed twice with PBS/BSA 0.5%. Subsequently, PE-labelled E749-57-containing tetramer was added. After 30 minutes of incubation at room temperature, cells were washed twice with PBS/BSA 0.5% and incubated with FITC-labelled anti CD8b Ab for 30 minutes. Subsequently cells were washed twice in PBS/BSA 0.5%, suspended in PBS/BSA 0.5% containing Propidium Iodide (PI) (0.5) μg/ml) and transferred to tubes. Cell samples were analysed in a FACSCalibur flow cytometer (Becton Dickinson, San Jose, Calif., USA) using CellQuest software. A total of 20×10^4 events was analysed for fluorescence intensity. Debris was gated out using the PI staining and subsequently the CD8^+ fraction was gated. […] As a positive control the HPV16 E7 specific CTL clone 9.5 was used.

[8] = HPV16-E2 peptides, >70 represents undetectable binding, read-out: Binding affinity DR2, IC50
[9] = HPV16-E2 peptides, >70 represents undetectable binding, read-out: Binding affinity DR3, IC50
[10] = HPV16-E2 peptides, >70 represents undetectable binding, read-out: Binding affinity DR4, IC50
[11] = HPV16-E2 peptides, >70 represents undetectable binding, read-out: Binding affinity DR1, IC50

CC[C@H](C)[C@H](NC(=O)[C@H](CCCNC(=N)N)NC(=O)CNC(=O)[C@H](CCCCN)NC(=O)[C@H](Cc1c[nH]cn1)NC(=O)[C@H](CO)NC(=O)[C@H](CO)NC(=O)[C@H](CC(N)=O)NC(=O)[C@@H](N)Cc1ccccc1)C(=O)N[C@@H](CC(N)=O)C(=O)N[C@@H](CS)C(=O)N[C@@H](CC(N)=O)C(=O)N[C@@H](CO)C(=O)N[C@@H](CC(N)=O)C(=O)N[C@H](C(=O)N[C@H](C(=O)N1CCC[C@H]1C(=O)N[C@H](C(=O)N[C@H](C(=O)N[C@@H](Cc1c[nH]cn1)C(=O)N[C@@H](CC(C)C)C(=O)N[C@@H](CCCCN)C(=O)NCC(=O)N[C@@H](CC(=O)O)C(=O)N[C@@H](C)C(=O)N[C@@H](CC(N)=O)C(=O)N[C@H](C(=O)N[C@@H](CC(C)C)C(=O)N[C@@H](CCCCN)C(=O)N[C@@H](CS)C(=O)O)[C@@H](C)O)C(C)C)[C@@H](C)CC)[C@@H](C)O)[C@@H](C)O [E2 271-300] (H-FNSSHKGRINCNSNTTPIVHLKGDANTLKC-OH; N-terminus and C-terminus assumed)
IC50 [1, 8]: 65 µM | mean percentage of wells exceeding medium control + 3 * SD ([2]; donor D8): 88% | IC50 [3, 9]: 37 µM | IC50 [4, 10]: > 70 µM

AIVTLTYDSEWQRDQFLSQVKIPKTITVSTGFMSI [E2 331-365]
IC50 [5, 11]: 8 µM | IC50 [1, 8]: 20 µM | mean percentage of wells exceeding medium control + 3 * SD ([2]; donor D3): 100% | mean percentage of wells exceeding medium control + 3 * SD ([2]; donor D7): 75% | IC50 [3, 9]: 10 µM | IC50 [4, 10]: 15 µM

E2 31-60: 30-mer, amino acids 31-60 of HPV16 E2 protein (DYWKHMRLECAIYYKAREMGFKHINHQVVP; UniProt P03120 31-60, looked up, fragment)
mean percentage of wells exceeding medium control + 3 * SD ([2]; donor D3): 81% | mean percentage of wells exceeding medium control + 3 * SD ([2]; donor D8): 88%

E2 46-75: 30-mer, amino acids 46-75 of HPV16 E2 protein (AREMGFKHINHQVVPTLAVSKNKALQAIEL; UniProt P03120 46-75, looked up, fragment)
mean percentage of wells exceeding medium control + 3 * SD ([2]; donor D3): 88% | mean percentage of wells exceeding medium control + 3 * SD ([2]; donor D5): 81% | mean percentage of wells exceeding medium control + 3 * SD ([2]; donor D8): 94%

E2 91-120: 30-mer, amino acids 91-120 of HPV16 E2 protein (KWTLQDVSLEVYLTAPTGCIKKHGYTVEVQ; UniProt P03120 91-120, looked up, fragment)
mean percentage of wells exceeding medium control + 3 * SD ([2]; donor D5): 94% | mean percentage of wells exceeding medium control + 3 * SD ([2]; donor D8): 75%

E2 151-180: 30-mer, amino acids 151-180 of HPV16 E2 protein (QVDYYGLYYVHEGIRTYFVQFKDDAEKYSK; UniProt P03120 151-180, looked up, fragment)
mean percentage of wells exceeding medium control + 3 * SD ([2]; donor D3): 81% | mean percentage of wells exceeding medium control + 3 * SD ([2]; donor D8): 81%

E2 166-195: 30-mer, amino acids 166-195 of HPV16 E2 protein (TYFVQFKDDAEKYSKNKVWEVHAGGQVILC; UniProt P03120 166-195, looked up, fragment)
mean percentage of wells exceeding medium control + 3 * SD ([2]; donor D3): 94% | mean percentage of wells exceeding medium control + 3 * SD ([2]; donor D5): 81%

E7 22-56: long peptide, amino acids 22-56 of HPV16 E7 protein (LYCYEQLNDSSEEEDEIDGPAGQAEPDRAHYNIVT; UniProt P03129 22-56, looked up, fragment)
recognition by HLA-DQ2 restricted Th-clone, IFNγ secretion [6]: secreted IFNγ

E7 30-50: peptide, amino acids 30-50 of HPV16 E7 (DSSEEEDEIDGPAGQAEPDRA; UniProt P03129 30-50, looked up, fragment)
recognition by HLA-DQ2 restricted Th-clone, IFNγ secretion [6]: recognized

E7 35-50: core sequence, amino acids 35-50 of HPV16 E7 (EDEIDGPAGQAEPDRA)
recognition by HLA-DQ2 restricted Th-clone, IFNγ secretion [6]: recognized the core sequence

E7 35-55: peptide, amino acids 35-55 of HPV16 E7 (EDEIDGPAGQAEPDRAHYNIV; UniProt P03129 35-55, looked up, fragment)
recognition by HLA-DQ2 restricted Th-clone, IFNγ secretion [6]: recognized

E7 50-62: core sequence, amino acids 50-62 of HPV16 E7 (AHYNIVTFCCKCD)
response of HLA-DR15 restricted Th-clone to pulsed APC [6]: core sequence recognized

E7 protein: recombinant HPV16-E7 protein produced in E. coli [reference compound]
recognition by HLA-DQ2 restricted Th-clone, IFNγ secretion [6]: secreted IFNγ | response of HLA-DR15 restricted Th-clone to pulsed APC [6]: specifically respond

RAHYNIVTF (minimal 9 amino acid long CTL epitope) [E7 49-57, ID; NO, reference compound]
E7 49-57-specific CD8+ T cell response ([7]; prime-boost, IFA): comparable to that after one vaccination | CD8+ T cells stained with tetramers ([7]; vaccinated once, IFA, responders): ~5% | mice responding to the vaccine (tetramer staining) ([7]; vaccinated once, IFA, spleens day 10): 3 out of 9 | number of responders ([7]; vaccinated once, MPL): 4/9 | E7 49-57-specific CTL response ([7]; vaccinated once, Montanide adjuvant): no responses were observed | number of responders ([7]; vaccinated once, ODN-CpG): 4/12 | E7 49-57-specific CTL response ([7]; vaccinated once, combined with anti-CD40 antibody or GM-CSF): no or minimal CTL responses

SSEEEDEIDGPAGQAEPDRAHY [E7 31-52]
IC50 ([5]; read-out: Binding DR1, IC50): > 70 µM | IC50 ([1]; HPV16-E7 22-mer peptides, >70 indicates undetectable binding, read-out: Binding DR2, IC50): > 70 µM | IC50 ([3]; HPV16-E7 22-mer peptides, >70 indicates undetectable binding, read-out: Binding DR3, IC50): > 70 µM | IC50 ([4]; HPV16-E7 22-mer peptides, >70 indicates undetectable binding, read-out: Binding DR4, IC50): > 70 µM

SSTWHWTGHNVKHKSAIVTLTYDSEWQRDQ [E2 316-345]
IC50 [5, 11]: 6 µM | IC50 [1, 8]: 55 µM | mean percentage of wells exceeding medium control + 3 * SD ([2]; donor D7): 94% | IC50 [3, 9]: 30 µM | IC50 [4, 10]: > 70 µM

tetanus toxoid [TT, reference compound]
mean percentage of wells exceeding medium control + 3 * SD ([2]; donor D1): 100% | mean percentage of wells exceeding medium control + 3 * SD ([2]; donor D2): 100% | mean stimulation index of all test wells of both assays ([2]; donor D3): 25 | mean percentage of wells exceeding medium control + 3 * SD ([2]; donor D3): 100% | mean percentage of wells exceeding medium control + 3 * SD ([2]; donor D4): 100% | mean percentage of wells exceeding medium control + 3 * SD ([2]; donor D5): 100% | mean stimulation index of all test wells of both assays ([2]; donor D6): 139 | mean percentage of wells exceeding medium control + 3 * SD ([2]; donor D6): 100% | mean percentage of wells exceeding medium control + 3 * SD ([2]; donor D7): 100% | mean stimulation index of all test wells of both assays ([2]; donor D8): 59 | mean percentage of wells exceeding medium control + 3 * SD ([2]; donor D8): 100% | stimulation index (SI) ([2]; donors #3, 4, 5 and 7): 13.3-25 | stimulation index (SI) ([2]; donors #3 and 6): ≥ 100
